Where a name gives a salt, the structure may show the parent alone. Read-outs that look alike come from different tables or passages of the source.

We go through 10 molecules from patent publication US10004701B2, “Methods and compositions for treating infection” (UNIVERSITY OF ROCHESTER, priority 2012, dated 2018).

What all share (test): AK assay 384-well format, Prestwick library screening
Assay [1] has as its system S. aureus strain USA300-0114. It is filed as cell-based, Staphylococcus aureus. To be noted: 50 μM final drug concentration; for fold induction at 50 µM: Staphylococcus aureus, USA300, 3 h.
The subject of the next assay is P. aeruginosa. In kind it is cell-based, Pseudomonas aeruginosa. To be noted: 50 μM final drug concentration; for fold induction at 50 µM: Pseudomonas aeruginosa, 3 h.
The subject of assay [2] is A. baumannii strain 98-37-09. In kind it is cell-based, Acinetobacter baumannii. The conditions noted are these: 50 μM final drug concentration; for fold induction at 50 µM: Acinetobacter baumannii, 983709, 3 h.
The test system of the next assay is E. cloacae. It is filed as cell-based, Enterobacter cloacae. To be noted: 50 μM final drug concentration; for fold induction at 50 µM: Enterobacter cloacae, 3 h.
The test system of another assay is K. pneumoniae. It is filed as cell-based, Klebsiella pneumoniae. To be noted: 50 μM final drug concentration; for fold induction at 50 µM: Klebsiella pneumoniae, 3 h.
For another assay, the system named is E. coli. It is filed as cell-based, Escherichia coli. The conditions noted are these: 50 μM final drug concentration; for fold induction at 50 µM: Escherichia coli, 3 h.
For the next assay, the system named is E. faecium. It is filed as cell-based, Enterococcus faecium. The conditions noted are these: 50 μM final drug concentration; for fold induction at 50 µM: Enterococcus faecium, 3 h.
Where [3] appears, read: planktonic S. aureus, cutoff for positive-scoring molecules 3-fold increase.
Where [4] appears, read: planktonic P. aeruginosa, cutoff for positive-scoring molecules 3-fold increase.
Setting [5] is: planktonic A. baumannii, cutoff for positive-scoring molecules 3-fold increase.
The mark [6] stands for this setting: planktonic E. cloacae, cutoff for positive-scoring molecules 3-fold increase.
[7] abbreviates: planktonic K. pneumoniae, cutoff for positive-scoring molecules 3-fold increase.
Setting [8] is: planktonic E. coli, cutoff for positive-scoring molecules 3-fold increase.
[9] abbreviates: planktonic E. faecium, cutoff for positive-scoring molecules 3-fold increase.
The mark [10] stands for this setting: planktonic S. aureus, cutoff for positive-scoring molecules 3-fold increase, read-out: AK-based Prestwick Library Screening Results, S. aureus (increase in extracellular AK activity).
The mark [11] stands for this setting: planktonic P. aeruginosa, cutoff for positive-scoring molecules 3-fold increase, read-out: AK-based Prestwick Library Screening Results, P. aeruginosa (increase in extracellular AK activity).
[12] abbreviates: planktonic A. baumannii, cutoff for positive-scoring molecules 3-fold increase, read-out: AK-based Prestwick Library Screening Results, A. baumannii (increase in extracellular AK activity).
Where [13] appears, read: planktonic E. cloacae, cutoff for positive-scoring molecules 3-fold increase, read-out: AK-based Prestwick Library Screening Results, E. cloacae (increase in extracellular AK activity).
[14] abbreviates: planktonic K. pneumoniae, cutoff for positive-scoring molecules 3-fold increase, read-out: AK-based Prestwick Library Screening Results, K. pneumoniae (increase in extracellular AK activity).
Setting [15] is: planktonic E. coli, cutoff for positive-scoring molecules 3-fold increase, read-out: AK-based Prestwick Library Screening Results, E. coli (increase in extracellular AK activity).
Where [16] appears, read: planktonic E. faecium, cutoff for positive-scoring molecules 3-fold increase, read-out: AK-based Prestwick Library Screening Results, E. faecium (increase in extracellular AK activity).
[17] abbreviates: 384-well format, cutoff for positive-scoring molecules 3-fold increase.

With `C[C@H]1[C@H]2CC[C@H]3[C@@H]4CC=C5C[C@@H](N(C)C)CC[C@]5(C)[C@H]4CC[C@]23CN1C` [Conessine], the fold induction at 50 µM in assay [1] (planktonic, cutoff for positive 3-fold increase, read-out: AK-based Prestwick Library Screening Results, S. aureus (fold increase in extracellular AK activity)) amounted to 1.2; in the assay with P. aeruginosa (planktonic, cutoff for positive 3-fold increase, read-out: AK-based Prestwick Library Screening Results, P. aeruginosa (fold increase in extracellular AK activity)), 1.2; in assay [2] (planktonic, cutoff for positive 3-fold increase, read-out: AK-based Prestwick Library Screening Results, A. baumannii (fold increase in extracellular AK activity)), 1.4; in the assay with E. cloacae (planktonic, cutoff for positive 3-fold increase, read-out: AK-based Prestwick Library Screening Results, E. cloacae (fold increase in extracellular AK activity)), 1.6; with K. pneumoniae (planktonic, cutoff for positive 3-fold increase, read-out: AK-based Prestwick Library Screening Results, K. pneumoniae (fold increase in extracellular AK activity)), 1.2; in the assay with E. coli (planktonic, cutoff for positive 3-fold increase, read-out: AK-based Prestwick Library Screening Results, E. coli (fold increase in extracellular AK activity)) it was 1.5. Also, in the assay on E. faecium (planktonic, cutoff for positive 3-fold increase, read-out: AK-based Prestwick Library Screening Results, E. faecium (fold increase in extracellular AK activity)), the fold induction at 50 µM turned out to be 1.1.
Regarding `COc1ccc(C(=O)OC2C[C@H]3CC[C@@H](C2)N3C)cc1OC.Cl` (stereo partly shown) [Convolamine hydrochloride], the “AK-based Prestwick Library Screening Results, S. aureus (increase in extracellular AK activity)” value in assay [1] (setting [3]) was found to be 0.6. Moreover, the “AK-based Prestwick Library Screening Results, P. aeruginosa (increase in extracellular AK activity)” value in the assay with P. aeruginosa (setting [4]) is 0.8. Also, the “AK-based Prestwick Library Screening Results, A. baumannii (increase in extracellular AK activity)” value in assay [2] (setting [5]) stood at 1.0. The “AK-based Prestwick Library Screening Results, E. cloacae (increase in extracellular AK activity)” value in the assay on E. cloacae (setting [6]) was 1.3. In addition, in the assay with K. pneumoniae (setting [7]), the “AK-based Prestwick Library Screening Results, K. pneumoniae (increase in extracellular AK activity)” value came out at 0.7. For the same molecule, in the assay with E. coli (setting [8]), the “AK-based Prestwick Library Screening Results, E. coli (increase in extracellular AK activity)” value worked out at 1.1. In the assay on E. faecium (setting [9]), the “AK-based Prestwick Library Screening Results, E. faecium (increase in extracellular AK activity)” value was 0.9.
For the molecule `COc1cc2cc3c4cc(OC)c(OC)cc4cc[n+]3c(C)c2cc1OC.O.[Cl-]` [Coralyne chloride hydrate], the “AK-based Prestwick Library Screening Results, S. aureus (increase in extracellular AK activity)” value in assay [1] (setting [3]) is listed as 0.4. In addition, the “AK-based Prestwick Library Screening Results, P. aeruginosa (increase in extracellular AK activity)” value in the assay on P. aeruginosa (setting [4]) is recorded as 0.8. Besides, in assay [2] (setting [5]), the “AK-based Prestwick Library Screening Results, A. baumannii (increase in extracellular AK activity)” value was determined as 0.8. In addition, in the assay with E. cloacae (setting [6]), the “AK-based Prestwick Library Screening Results, E. cloacae (increase in extracellular AK activity)” value amounted to 1.1. The “AK-based Prestwick Library Screening Results, K. pneumoniae (increase in extracellular AK activity)” value in the assay on K. pneumoniae (setting [7]) came out at 0.6. For the same molecule, the “AK-based Prestwick Library Screening Results, E. coli (increase in extracellular AK activity)” value in the assay with E. coli (planktonic E. coli, […]) amounted to 0.9. Besides, the “AK-based Prestwick Library Screening Results, E. faecium (increase in extracellular AK activity)” value with E. faecium (setting [9]) is 0.9.
For `C[C@]12C[C@H](O)[C@H]3[C@@H](CCC4=CC(=O)CC[C@@]43C)[C@@H]1CC[C@@H]2C(=O)CO` [Corticosterone], the fold induction at 50 µM in assay [1] (setting [10]) was 0.6; in the assay on P. aeruginosa (setting [11]), 0.8; in assay [2] (setting [12]), 0.9; in the assay with E. cloacae (setting [13]) it was 1.2; in the assay with K. pneumoniae (setting [14]), 0.7; with E. coli (setting [15]), 0.9. Moreover, the fold induction at 50 µM in the assay with E. faecium (setting [16]) was 0.9.
As for `C[C@]12CCC(=O)C=C1CC[C@@H]1[C@@H]2C(=O)C[C@@]2(C)[C@H]1CC[C@]2(O)C(=O)CO` [Cortisone], in assay [1] (setting [17]), the “AK-based Prestwick Library Screening Results, S. aureus (increase in extracellular AK activity)” value came to 0.8. In the assay on P. aeruginosa (setting [17]), the “AK-based Prestwick Library Screening Results, P. aeruginosa (increase in extracellular AK activity)” value was 1.0. Further, the “AK-based Prestwick Library Screening Results, A. baumannii (increase in extracellular AK activity)” value in assay [2] (setting [17]) is 1.0. Moreover, in the assay on E. cloacae (setting [17]), the “AK-based Prestwick Library Screening Results, E. cloacae (increase in extracellular AK activity)” value worked out at 1.2. The “AK-based Prestwick Library Screening Results, K. pneumoniae (increase in extracellular AK activity)” value with K. pneumoniae (setting [17]) was 0.8. Also, in the assay with E. coli (setting [17]), the “AK-based Prestwick Library Screening Results, E. coli (increase in extracellular AK activity)” value is reported as 0.9. The “AK-based Prestwick Library Screening Results, E. faecium (increase in extracellular AK activity)” value with E. faecium (setting [17]) was 0.9.
Turning to `COC(=O)[C@H]1[C@H]2C[C@H]3c4[nH]c5ccccc5c4CCN3C[C@@H]2CC[C@@H]1O.Cl` [Corynanthine hydrochloride], the “AK-based Prestwick Library Screening Results, S. aureus (increase in extracellular AK activity)” value in assay [1] (setting [3]) is 0.7. Also, in the assay on P. aeruginosa (setting [4]), the “AK-based Prestwick Library Screening Results, P. aeruginosa (increase in extracellular AK activity)” value is 0.7. Also, the “AK-based Prestwick Library Screening Results, A. baumannii (increase in extracellular AK activity)” value in assay [2] (setting [5]) is on record as 0.6. Further, the “AK-based Prestwick Library Screening Results, E. cloacae (increase in extracellular AK activity)” value with E. cloacae (setting [6]) is 0.8. The “AK-based Prestwick Library Screening Results, K. pneumoniae (increase in extracellular AK activity)” value with K. pneumoniae (setting [7]) came to 0.6. Also, the “AK-based Prestwick Library Screening Results, E. coli (increase in extracellular AK activity)” value in the assay with E. coli (setting [8]) came out at 0.7. In addition, the “AK-based Prestwick Library Screening Results, E. faecium (increase in extracellular AK activity)” value in the assay on E. faecium (setting [9]) is 1.0.
Turning to `O=C(O)c1cc(=O)c2c(OCC(O)COc3cccc4oc(C(=O)O)cc(=O)c34)cccc2o1` [Cromolyn disodium salt], the fold induction at 50 µM in assay [1] (planktonic, cutoff for positive-scoring molecules 3-fold increase, read-out: AK-based Prestwick Library Screening Results, S. aureus (fold increase in extracellular AK activity)) turned out to be 0.7; in the assay with P. aeruginosa (planktonic, cutoff for positive-scoring molecules 3-fold increase, read-out: AK-based Prestwick Library Screening Results, P. aeruginosa (fold increase in extracellular AK activity)), 0.8; in assay [2] (planktonic, cutoff for positive-scoring molecules 3-fold increase, read-out: AK-based Prestwick Library Screening Results, A. baumannii (fold increase in extracellular AK activity)) it was 0.9; in the assay on E. cloacae (planktonic, cutoff for positive-scoring molecules 3-fold increase, read-out: AK-based Prestwick Library Screening Results, E. cloacae (fold increase in extracellular AK activity)) it was 1; in the assay with K. pneumoniae (planktonic, cutoff for positive-scoring molecules 3-fold increase, read-out: AK-based Prestwick Library Screening Results, K. pneumoniae (fold increase in extracellular AK activity)), 0.7; in the assay on E. coli (planktonic, cutoff for positive-scoring molecules 3-fold increase, read-out: AK-based Prestwick Library Screening Results, E. coli (fold increase in extracellular AK activity)) it was 0.7. The fold induction at 50 µM in the assay on E. faecium (planktonic, cutoff for positive-scoring molecules 3-fold increase, read-out: AK-based Prestwick Library Screening Results, E. faecium (fold increase in extracellular AK activity)) amounted to 0.9.
As to `CC=CC(=O)N(CC)c1ccccc1C` [Crotamiton], the “AK-based Prestwick Library Screening Results, S. aureus (fold increase in extracellular AK activity)” value in assay [1] ([…]) is 1.3. In the assay on P. aeruginosa ([…]), the “AK-based Prestwick Library Screening Results, P. aeruginosa (fold increase in extracellular AK activity)” value was determined as 1.3. The “AK-based Prestwick Library Screening Results, A. baumannii (fold increase in extracellular AK activity)” value in assay [2] ([…]) amounted to 1.3. Further, the “AK-based Prestwick Library Screening Results, E. cloacae (fold increase in extracellular AK activity)” value in the assay with E. cloacae ([…]) is 1.3. In addition, the “AK-based Prestwick Library Screening Results, K. pneumoniae (fold increase in extracellular AK activity)” value in the assay on K. pneumoniae ([…]) is listed as 1.1. In addition, in the assay with E. coli ([…]), the “AK-based Prestwick Library Screening Results, E. coli (fold increase in extracellular AK activity)” value is 1.5. For the same molecule, in the assay on E. faecium ([…]), the “AK-based Prestwick Library Screening Results, E. faecium (fold increase in extracellular AK activity)” value was 1.1.
Take `CN1CCN(C(c2ccccc2)c2ccccc2)CC1` [Cyclizine hydrochloride]: the fold induction at 50 µM in assay [1] (setting [10]) was 0.9; in the assay with P. aeruginosa (setting [11]), 0.9; in assay [2] (setting [12]), 1; in the assay on E. cloacae (setting [13]), 0.9; with K. pneumoniae (setting [14]) it was 0.8; in the assay on E. coli (setting [15]), 0.9. The fold induction at 50 µM in the assay with E. faecium (setting [16]) turned out to be 1.
Consider `CN(C)CCC=C1c2ccccc2C=Cc2ccccc21` [Cyclobenzaprine hydrochloride], for which the fold induction at 50 µM in assay [1] (setting [10]) came to 1; in the assay on P. aeruginosa (setting [11]), 1.1; in assay [2] (setting [12]) it was 1.2; in the assay with E. cloacae (setting [13]), 1.2; in the assay on K. pneumoniae (setting [14]), 0.9; with E. coli (setting [15]) it was 1.3. In the assay with E. faecium (setting [16]), the fold induction at 50 µM amounted to 1.
